This passage reports IC50 and change in vivo results from US8912224B2, “Substituted 2-(chroman-6-yloxy)-thiazoles and their use as pharmaceuticals” (Sanofi, priority 2011, dated 2014).

SMILES strings stand for the structures.

The target of assay [1] is human NCX1 (Homo sapiens (Human), UniProt P32418). Briefly: Inhibition of Ca2+ influx into cells (NCX1 reverse mode), FLIPR Fluo-4 assay. In kind it is cell-based. Conditions: inhibition of NCX1 in reverse mode (Ca2+ influx into cells); read-out: NCX1rv IC50. From the text: The sodium/calcium exchanger NCX1 can transport calcium ions and sodium ions through the cell membrane. The transport is an exchange of Ca^2+and Na^+in two directions depending on membrane potential and ion gradients. At the first direction, named “forward mode” or “calcium export mode”, Ca^2+is transported out of the cell and Na^+ is transported into the cell. At the other direction, named “reverse mode” or “calcium import mode”, the transport directions are vice versa. The effect of the compounds of the invention on NCX1 was determined in CHO cells stably expressing human NCX1 (gene symbol SLC8A1; cf. WO 2009/115238). The assay is based on the monitoring of intracellular Ca^2+concentrations using a calcium-sensitive fluorescence dye which is detected by means of a FLIPR device (Fluorimetric Imaging Plate Reader, Molecular Devices).
Assay Technology—Reverse Mode
The assay is based on the monitoring of intracellular Ca^2+concentrations using the calcium-sensitive dye Fluo-4. CHO cells expressing NCX1 were loaded with the dye by means of the acetoxymethyl ester Fluo-4 AM (Invitrogen, F14202), which is cleaved intracellularly by esterase activity to yield the charged species of free Fluo-4. After an preincubation period with the test compound, Gramicidine (Sigma, G5002) was added. Gramicidine is an ionophor for Na^+ions mediating an increase of intracellular Na^+ions. Consequently, intracellular Na^+ions are exchanged against extracellular Ca^2+ions (Ca^2+influx, reverse mode). The intracellular elevation of Ca^2+ ions was detected by measuring the fluorescence of Fluo-4 at a wavelength of 520 nm by a FLIPR device.
Briefly, for the reverse mode transport assay 18000 cells per well were seeded into a 96 well microplate (Corning COSTAR 3904) and incubated overnight in culture medium (1× Nut Mix F12 (Ham) (Gibco, 21765-029); 10% (v/v) fetal calf serum (PAA Gold, A15-649); 450 μg/ml Geneticin (Gibco, 10131-027)). A total volume of 100 μl medium per well was used. For the preparation of the FLIPR assay, the culture medium was removed from the plates and 100 μl of dye solution (2 μM Fluo-4 AM; 0.02% (v/v) Pluronic F-127 (20%, Invitrogen, P3000MP); 0.1% (v/v) bovine albumin solution (30% (v/v), Sigma, A9205) in assay buffer (133.8 mM NaCl (Sigma, S5886); 4.7 mM KCl (Sigma, P3911); 1.25 mM MgCl2 (Merck, 1.05833.0250); 3.5 mM CaCl2 (Merck, 1.02083.0250); 5 mM glucose (Sigma, G7021); 10 mM Hepes (Sigma, H4034); 0.01% (v/v) Pluronic F-127 (5%, Sigma, P2443); 2.5 mM Probenecid (Maybridge, SB00915EB); pH 7.4)) were added into each well. The plates were incubated in the dark at room temperature for 80 min. After the incubation period, the dye solution was removed and the wells were washed with 100 μl of assay buffer. Then 80 μl of a solution of the test compound in assay buffer in different concentrations were added into the wells. The plates were incubated at 16° C. for 45 min. Meanwhile a 60 μM solution of Gramicidine in assay buffer (4° C.) was prepared and stored in the wells of a 96 well microplate (96 well microplate, polypropylene, U-shape (Greiner Bio-One, 650201)) at 4° C. until measurement was started. The fluorescence monitoring was performed at 240 measuring points with measurement intervals of 2 sec. After the fifth measuring point, 40 μl of the Gramicidine solution were added to each well of the assay plates to give a final Gramicidine concentration of 20 μM. For the determination of the IC50 values the minimal fluorescence value was subtracted from the maximal fluorescence value for all measuring points. The calculation of the IC50 values via the percentage inhibitions of Ca^2+influx into cells (reverse mode) effected by the test compound was performed in Biost@t Speed 2.0.

The subject of assay [2] is Sprague-Dawley rats. Briefly: In vivo method for determining the effect on heart contractility (left ventricular dp/dtmax) in anesthetized rats. The conditions noted are these: iv, rat, i.v. bolus injection, versus solvent control, read-out: Contractility increase (%). Here is the method: B) In vivo Method for Determining the Effect on Heart Contractility Adult male Sprague-Dawley rats (Harlan […], Germany) weighing 340 to 370 g were anesthetized with pentobarbital (100 mg/kg i.p.) and ventilated with a mixture of oxygen (40%) and room air (60%) at a tidal volume of 1 ml/100 g at 60 breaths/min. Body temperature was maintained at 36.5±0.3° C. with a heating lamp and was monitored with a rectal thermo sensor. Systemic blood pressure was measured in the left carotid artery using a pressure transducer (Combitrans; B. Braun Melsungen AG, Melsungen, Germany) connected to a DC-bridge-amplifier (PLUGSYS/ADC Type 663; Harvard Apparatus GmbH, March-Hugstetten, Germany). The electrocardiogram was measured as lead II via subcutaneously placed electrodes connected to a Heart-Rate-Module ([…] Type 669; Harvard Apparatus GmbH, March-Hugstetten, Germany). A micro-tip catheter (2 French, SPR-320; Millar Instruments, Houston, Tex., USA) was placed via the right carotid artery into the left ventricle, and the left ventricular pressure (LVP) and the end diastolic pressure (EDP) were continuously measured. Registration of the hemodynamic data was performed via an analog digital converter by a personal computer using Notocord software (HEM version 3.5). Left ventricular contractility (dp/dtmax) and relaxation (dp/dtmin) were calculated from the LVP signal. For intravenous administration of the test compounds, the left jugular vein was prepared and a PP-50 catheter was inserted. Test compounds were administered either by intravenous bolus injection or by intravenous infusion by means of an infusion pump (Unita; B. Braun Melsungen AG, Melsungen, Germany). […] In a typical experiment, several dosages of the test compound were administered subsequently at increasing doses. Statistical significance of the data obtained with drug vs control experiments, in which solvent was administered, was evaluated with the 2-sided ANOVA test (program Everstat). Increases in left ventricular contractility (percent increase) by example compounds are given in Table 3 in comparison to control experiments in which solvent was administered.

Sequence of human NCX1 (P32418 whole entry, looked up): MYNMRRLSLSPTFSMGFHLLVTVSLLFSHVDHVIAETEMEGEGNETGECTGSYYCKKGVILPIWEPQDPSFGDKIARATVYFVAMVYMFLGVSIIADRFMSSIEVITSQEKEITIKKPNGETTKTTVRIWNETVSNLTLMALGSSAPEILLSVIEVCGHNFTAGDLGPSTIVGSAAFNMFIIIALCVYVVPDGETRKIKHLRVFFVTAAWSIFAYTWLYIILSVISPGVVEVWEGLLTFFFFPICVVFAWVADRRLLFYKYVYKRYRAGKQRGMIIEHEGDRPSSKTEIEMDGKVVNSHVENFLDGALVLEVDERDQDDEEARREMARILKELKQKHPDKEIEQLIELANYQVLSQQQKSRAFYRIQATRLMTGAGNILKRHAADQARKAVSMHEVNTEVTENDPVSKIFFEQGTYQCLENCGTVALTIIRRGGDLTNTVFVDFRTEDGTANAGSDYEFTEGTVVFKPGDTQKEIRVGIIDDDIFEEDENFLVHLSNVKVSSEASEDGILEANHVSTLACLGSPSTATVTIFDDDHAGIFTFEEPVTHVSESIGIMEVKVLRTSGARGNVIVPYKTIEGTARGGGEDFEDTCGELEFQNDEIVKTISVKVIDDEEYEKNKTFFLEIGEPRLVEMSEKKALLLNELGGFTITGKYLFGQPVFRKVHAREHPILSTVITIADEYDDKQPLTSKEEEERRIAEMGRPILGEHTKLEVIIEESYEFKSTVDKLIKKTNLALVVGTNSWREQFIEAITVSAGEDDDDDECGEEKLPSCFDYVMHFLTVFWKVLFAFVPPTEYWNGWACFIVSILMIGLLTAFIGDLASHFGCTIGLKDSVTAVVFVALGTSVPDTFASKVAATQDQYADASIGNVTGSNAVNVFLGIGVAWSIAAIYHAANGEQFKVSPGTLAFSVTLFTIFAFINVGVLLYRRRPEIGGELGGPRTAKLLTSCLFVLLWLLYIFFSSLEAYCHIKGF

`Cc1ccc(F)cc1C1CCc2cc(Oc3ncc(C(=O)NCCO)s3)ccc2O1` (stereo not drawn) [Example 342, 2-[2-(5-Fluoro-2-methyl-phenyl)-chroman-6-yloxy]-thiazole-5-carboxylic acid (2-hydroxy-ethyl)-amide]: the IC50 in assay [1] is 0.4 µM. In assay [2], the change in vivo at 0.1 mg/kg amounted to 38%, the change in vivo at 0.3 mg/kg was found to be 73% and the change in vivo at 1 mg/kg came out at 146%.

Regarding `Cc1ccccc1[C@@H]1CCc2cc(Oc3ncc(C(=O)NCCO)s3)ccc2O1` [Example 326, 2-((S)-2-o-Tolyl-chroman-6-yloxy)-thiazole-5-carboxylic acid (2-hydroxy-ethyl)-amide], the IC50 in assay [1] was found to be 0.1 µM. In assay [2], the change in vivo at 0.1 mg/kg turned out to be 67%, the change in vivo at 0.3 mg/kg stood at 105% and the change in vivo at 1 mg/kg is 138%.

Consider `Cc1ccccc1C1CCc2cc(Oc3ncc(CNC(=O)CN4CCCC4=O)s3)ccc2O1` (stereo not drawn) [Example 327, 2-(2-Oxo-pyrrolidin-1-yl)-N-[2-(2-o-tolyl-chroman-6-yloxy)-thiazol-5-ylmethyl]-acetamide], for which, in assay [1], the IC50 was determined as 0.5 µM. For the same compound, in assay [2], the change in vivo at 0.1 mg/kg was found to be 9%, the change in vivo at 0.3 mg/kg is 27% and the change in vivo at 1 mg/kg was 55%.

In the case of `CCCNC(=O)c1cnc(Oc2ccc3c(c2)CCC(c2cc(F)ccc2C)O3)s1` (stereo not drawn) [Example 343, 2-[2-(5-Fluoro-2-methyl-phenyl)-chroman-6-yloxy]-thiazole-5-carboxylic acid propylamide], the IC50 in assay [1] was 0.5 µM. Also, in assay [2], the change in vivo at 0.1 mg/kg was found to be 20%, the change in vivo at 0.3 mg/kg worked out at 25% and the change in vivo at 1 mg/kg was found to be 39%.

Consider `CCCNC(=O)c1cnc(Oc2ccc3c(c2)CCC(c2ccccc2C)O3)s1` (stereo not drawn) [Example 330, 2-(2-o-Tolyl-chroman-6-yloxy)-thiazole-5-carboxylic acid propylamide], for which, in assay [1], the IC50 came out at 0.3 µM. Further, in assay [2], the change in vivo at 0.1 mg/kg is 50%, the change in vivo at 0.3 mg/kg was 86% and the change in vivo at 1 mg/kg stood at 161%.

In the case of `Cc1ccccc1C1CCc2cc(Oc3nc(C)c(C(=O)NCc4ccno4)s3)ccc2O1` (stereo not drawn) [Example 334, 4-Methyl-2-(2-o-tolyl-chroman-6-yloxy)-thiazole-5-carboxylic acid (isoxazol-5-ylmethyl)-amide], the IC50 in assay [1] stood at 0.5 µM. For the same compound, in assay [2], the change in vivo at 0.1 mg/kg was 19%, the change in vivo at 0.3 mg/kg was determined as 41% and the change in vivo at 1 mg/kg is 59%.

As a reminder, the IC50 is the concentration needed to halve the response being measured.
